Experimental data reported in ChEMBL document CHEMBL5131564, “Discovery of Potent and Selective Receptor-Interacting Serine/Threonine Protein Kinase 2 (RIPK2) Inhibitors for the Treatment of Inflammatory Bowel Diseases (IBDs)” (J Med Chem, 2022).
Active and inactive are the calls of the source. No cut-off for these calls is given here.

What was measured:
[1] = target: T1, Receptor-interacting serine/threonine-protein kinase 1 (Homo sapiens) (UniProt Q13546); experiment: Inhibition of human RIPK1 assessed as active kinase incubated for 120 mins in presence of [gamma33P]ATP at 1000 nM by scintillation counting based radiometry assay relative to control; parameters: scale not given: the % may be the effect or the level left
T1 sequence (whole entry): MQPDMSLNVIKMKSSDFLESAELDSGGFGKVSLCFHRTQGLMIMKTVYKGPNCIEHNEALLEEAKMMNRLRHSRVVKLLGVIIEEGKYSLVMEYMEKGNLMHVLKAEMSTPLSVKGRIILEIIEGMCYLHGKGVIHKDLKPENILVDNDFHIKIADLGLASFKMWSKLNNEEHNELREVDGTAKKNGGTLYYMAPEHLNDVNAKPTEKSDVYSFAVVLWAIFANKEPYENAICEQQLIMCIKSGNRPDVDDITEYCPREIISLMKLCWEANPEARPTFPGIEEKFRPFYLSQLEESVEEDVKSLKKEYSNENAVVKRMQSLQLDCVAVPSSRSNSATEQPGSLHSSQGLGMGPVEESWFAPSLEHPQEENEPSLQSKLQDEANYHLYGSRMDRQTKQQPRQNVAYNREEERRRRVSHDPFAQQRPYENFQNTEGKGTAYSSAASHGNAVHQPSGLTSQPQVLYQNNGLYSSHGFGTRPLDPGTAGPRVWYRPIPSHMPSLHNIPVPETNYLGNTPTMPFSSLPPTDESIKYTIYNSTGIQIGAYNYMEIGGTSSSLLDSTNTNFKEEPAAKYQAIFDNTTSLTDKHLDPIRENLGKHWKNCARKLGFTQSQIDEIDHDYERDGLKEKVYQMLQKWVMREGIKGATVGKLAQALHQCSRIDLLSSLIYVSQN

[2] = Inhibition of MDP-stimulated TNFalpha production in mouse RAW264.7 cells at 100 nM incubated for 22 hrs by ELISA relative to control; format: functional
[3] = target: Receptor-type tyrosine-protein kinase FLT3 (Homo sapiens) (UniProt P36888); experiment: Inhibition of human Flt3 using EAIYAAPFAKKK peptide substrate assessed as active kinase incubated for 40 mins in presence of [gamma33P]ATP at 1000 nM by scintillation counting based radiometry assay relative to control; parameters: scale not given: the % may be the effect or the level left
Sequence of Receptor-type tyrosine-protein kinase FLT3 (Homo sapiens) (P36888 whole entry): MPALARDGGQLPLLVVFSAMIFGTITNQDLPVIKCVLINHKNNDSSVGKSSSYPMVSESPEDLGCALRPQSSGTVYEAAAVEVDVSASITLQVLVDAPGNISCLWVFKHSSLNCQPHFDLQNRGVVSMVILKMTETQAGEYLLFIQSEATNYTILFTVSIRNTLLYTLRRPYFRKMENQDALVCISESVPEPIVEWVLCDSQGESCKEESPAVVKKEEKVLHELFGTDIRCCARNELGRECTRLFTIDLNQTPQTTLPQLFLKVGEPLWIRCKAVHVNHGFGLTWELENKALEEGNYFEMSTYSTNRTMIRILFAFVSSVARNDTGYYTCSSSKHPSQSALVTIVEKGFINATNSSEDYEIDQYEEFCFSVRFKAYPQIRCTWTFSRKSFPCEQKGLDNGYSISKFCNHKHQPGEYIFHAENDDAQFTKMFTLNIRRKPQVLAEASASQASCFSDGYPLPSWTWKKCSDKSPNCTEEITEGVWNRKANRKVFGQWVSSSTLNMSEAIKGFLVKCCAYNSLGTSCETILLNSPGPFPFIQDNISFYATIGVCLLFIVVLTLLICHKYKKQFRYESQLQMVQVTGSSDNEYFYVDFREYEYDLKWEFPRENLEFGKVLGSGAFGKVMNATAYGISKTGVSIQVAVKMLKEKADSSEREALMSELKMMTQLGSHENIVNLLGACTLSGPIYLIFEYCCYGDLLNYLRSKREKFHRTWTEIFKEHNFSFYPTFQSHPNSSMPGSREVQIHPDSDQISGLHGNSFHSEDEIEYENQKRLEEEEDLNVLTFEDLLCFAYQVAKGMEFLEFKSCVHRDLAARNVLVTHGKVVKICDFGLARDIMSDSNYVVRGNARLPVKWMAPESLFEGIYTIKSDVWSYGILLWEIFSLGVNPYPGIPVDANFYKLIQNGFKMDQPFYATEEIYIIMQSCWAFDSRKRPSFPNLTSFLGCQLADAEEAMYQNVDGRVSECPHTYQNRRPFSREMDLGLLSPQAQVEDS

[4] = target: Receptor-interacting serine/threonine-protein kinase 2 (Homo sapiens, UniProt O43353); experiment: Inhibition of human RIPK2 incubated for 120 mins in presence of [gamma33P]ATP by scintillation counting based radiometry assay
Sequence of Receptor-interacting serine/threonine-protein kinase 2 (O43353 whole entry): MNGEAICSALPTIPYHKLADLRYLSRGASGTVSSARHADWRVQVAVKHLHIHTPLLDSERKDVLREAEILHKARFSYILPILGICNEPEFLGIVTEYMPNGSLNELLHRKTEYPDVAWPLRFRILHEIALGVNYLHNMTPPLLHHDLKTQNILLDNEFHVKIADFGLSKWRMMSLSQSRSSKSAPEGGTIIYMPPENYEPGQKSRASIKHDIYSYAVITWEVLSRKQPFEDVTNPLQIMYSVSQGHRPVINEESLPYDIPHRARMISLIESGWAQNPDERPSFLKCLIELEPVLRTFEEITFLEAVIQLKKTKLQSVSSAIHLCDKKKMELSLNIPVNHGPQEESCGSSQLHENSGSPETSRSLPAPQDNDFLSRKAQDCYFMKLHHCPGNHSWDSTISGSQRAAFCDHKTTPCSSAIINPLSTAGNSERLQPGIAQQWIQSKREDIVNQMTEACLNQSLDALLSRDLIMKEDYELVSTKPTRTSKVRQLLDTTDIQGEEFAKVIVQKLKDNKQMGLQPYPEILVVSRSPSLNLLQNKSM

[5] = Metabolic stability in human liver microsomes assessed as half life at 1 uM by LC/MS/MS analysis; format: ADME, Microsome
[6] = Toxicity in rat H9c2 cells assessed as inhibitory rate at 10 uM relative to control; format: cell-based
[7] = Inhibition of LPS/MDP-stimulated TNFalpha production in C57BL/6J mouse BMDM cells by ELISA relative to control; format: functional, cell-based
[8] = Toxicity in rat H9c2 cells assessed as inhibitory rate; format: cell-based
[9] = test system: Mus musculus; experiment: Anti-inflammatory activity against DSS-induced acute ulcerative colitis C57BL/6 mouse model assessed as recovery of weight loss at 20 mg/kg, po for 6 consecutive days; format: functional, organism-based

Activity [1] | Activity [3] | IC50 [4] | half-life at 1 µM [5] | IC50 [7] | Structure (SMILES) | inhibition at 0.1 µM [2] | inhibition at 10 µM [6] | IC50 [8] | Activity [9]
93% |  |  |  |  | CC(C)(C)c1ccc(-c2cn([C@H]3CC[C@@H](N)CC3)c3ncnc(N)c23)cc1 | -40% |  |  | 
98% |  |  |  |  | CCOc1ccc(-c2cn([C@H]3CC[C@@H](N)CC3)c3ncnc(N)c23)cc1 | -15% |  |  | 
85% | 58% | 5.2 nM | 6.3 min |  | C=CCN[C@H]1CC[C@@H](n2cc(-c3ccc(OC)cc3)c3c(N)ncnc32)CC1 | 76% |  |  | 
77% | 54% | 10.8 nM |  |  | CCC(=O)N[C@H]1CC[C@@H](n2cc(-c3ccc(OC)cc3)c3c(N)ncnc32)CC1 | 53% |  |  | 
73% | 55% | 21.1 nM |  |  | COc1ccc(-c2cn([C@H]3CC[C@@H](NS(=O)(=O)C(F)(F)F)CC3)c3ncnc(N)c23)cc1 | -2% |  |  | 
 |  |  | 28.2 min |  | Cc1ccc(-c2cn([C@H]3CC[C@@H](N)CC3)c3ncnc(N)c23)cc1Cl |  |  |  | 
98% |  |  |  |  | Nc1cccc(-c2cn([C@H]3CC[C@@H](N)CC3)c3ncnc(N)c23)c1 | 16% |  |  | 
100% |  |  |  |  | Nc1ccc(-c2cn([C@H]3CC[C@@H](N)CC3)c3ncnc(N)c23)cc1 | 22% |  |  | 
105% |  | 10.7 nM | 23.7 min |  | Cc1cccc(-c2cn([C@H]3CC[C@@H](N)CC3)c3ncnc(N)c23)c1 | 83% | 18% |  | 
97% |  |  |  |  | CCc1ccc(-c2cn([C@H]3CC[C@@H](N)CC3)c3ncnc(N)c23)cc1 | 46% |  |  | 
99% | 46% | 6.7 nM | 2.7 min |  | COc1ccc(-c2cn([C@H]3CC[C@@H](NCC#N)CC3)c3ncnc(N)c23)cc1 | 62% |  |  | 
125% |  | 1.6 nM | > 120 min | 1.7 nM | Nc1ncnc2c1c(-c1ccc(F)cc1)cn2[C@H]1CC[C@@H](N)CC1 | 72% | 35% |  | 
95% |  | 33.8 nM | 33.8 min | 57.7 nM | Cc1ccc(-c2nn(C(C)(C)CNC(=O)c3ccncc3)c3ncnc(N)c23)cc1 | 68% | 50% | 13100 nM | 
82% | 63% | 16.7 nM |  |  | COc1ccc(-c2cn([C@H]3CC[C@@H](NC(=O)C(C)Cl)CC3)c3ncnc(N)c23)cc1 (stereo not given in full) | 51% |  |  | 
116% |  | 5.9 nM | > 120 min |  | Nc1ncnc2c1c(-c1cccc(Cl)c1)cn2[C@H]1CC[C@@H](N)CC1 | 84% | 98% |  | 
87% | 85% | 3.9 nM |  |  | COc1ccc(-c2cn([C@H]3CC[C@@H](NC(=O)c4cc(OC)c(OC)c(OC)c4)CC3)c3ncnc(N)c23)cc1 | 49% |  |  | 
 |  |  | 22.4 min |  | Cc1ccc(-c2cn([C@H]3CC[C@@H](N)CC3)c3ncnc(N)c23)cc1C |  |  |  | 
99% |  | 7.9 nM | > 120 min |  | Cc1ccccc1-c1cn([C@H]2CC[C@@H](N)CC2)c2ncnc(N)c12 | 88% | 54% |  | 
117% |  |  |  |  | CC(C)Cc1ccc(-c2cn([C@H]3CC[C@@H](N)CC3)c3ncnc(N)c23)cc1 | -23% |  |  | 

Activity [1] | Activity [3] | IC50 [4] | half-life at 1 µM [5] | IC50 [7] | Structure (SMILES) | inhibition at 0.1 µM [2] | inhibition at 10 µM [6] | IC50 [8] | Activity [9]
112% |  |  |  |  | Nc1ccccc1-c1cn([C@H]2CC[C@@H](N)CC2)c2ncnc(N)c12 | -35% |  |  | 
 |  |  | 26.9 min |  | Cc1ccc(-c2cn([C@H]3CC[C@@H](N)CC3)c3ncnc(N)c23)cc1F |  |  |  | 
95% |  |  |  |  | CC(C)c1ccc(-c2cn([C@H]3CC[C@@H](N)CC3)c3ncnc(N)c23)cc1 | -52% |  |  | 
114% |  | 2.4 nM | 27.4 min |  | Cc1ccc(-c2cn([C@H]3CC[C@@H](N)CC3)c3ncnc(N)c23)cc1 | 99% | 28% |  | 
115% |  | 6.4 nM | 107 min |  | Nc1ncnc2c1c(-c1cccc(F)c1)cn2[C@H]1CC[C@@H](N)CC1 | 71% | 50% |  | 
99% |  |  |  |  | Nc1ncnc2c1c(-c1ccsc1)cn2[C@H]1CC[C@@H](N)CC1 | 16% |  |  | 
77% | 47% | 15.6 nM |  |  | COc1ccc(-c2cn([C@H]3CC[C@@H](NC(=O)C(C)(C)C)CC3)c3ncnc(N)c23)cc1 | 45% |  |  | 
114% |  |  |  |  | Nc1ncnc2c1c(-c1cc(F)cc(F)c1)cn2[C@H]1CC[C@@H](N)CC1 | 56% |  |  | 
105% | 86% | 18.5 nM |  |  | COc1ccc(-c2cn([C@H]3CC[C@@H](NCc4cccc(OC(F)(F)F)c4)CC3)c3ncnc(N)c23)cc1 | 54% |  |  | 
112% |  | 4 nM | 69.3 min |  | Nc1ccc(-c2cn([C@H]3CC[C@@H](N)CC3)c3ncnc(N)c23)cc1F | 72% | 82% |  | 
96% |  | 6.3 nM | 133 min |  | Nc1ncnc2c1c(-c1ccc(O)cc1)cn2[C@H]1CC[C@@H](N)CC1 | 75% | 61% |  | 
72% | 49% | 6 nM |  |  | CCCC(=O)N[C@H]1CC[C@@H](n2cc(-c3ccc(OC)cc3)c3c(N)ncnc32)CC1 | 31% |  |  | 
119% |  | 0.8 nM | > 120 min |  | Nc1ncnc2c1c(-c1ccc3c(c1)OCO3)cn2[C@H]1CC[C@@H](N)CC1 | 68% | 64% |  | 
97% | 68% | 4.2 nM | 108 min | 3.8 nM | COc1ccc(-c2cn([C@H]3CC[C@@H](N)CC3)c3ncnc(N)c23)cc1 | 69% |  |  | 
80% | 57% | 11.7 nM |  |  | COc1ccc(-c2cn([C@H]3CC[C@@H](NC(C)=O)CC3)c3ncnc(N)c23)cc1 | 27% |  |  | 
94% | 70% | 3 nM | 1.6 min |  | COc1ccc(-c2cn([C@H]3CC[C@@H](NCc4ccccc4)CC3)c3ncnc(N)c23)cc1 | 76% |  |  | 
 |  |  | > 120 min | 2.3 nM | Cc1ccc(-c2cn([C@H]3CC[C@@H](N)CC3)c3ncnc(N)c23)c(Cl)c1 |  |  | 11400 nM | Active
104% |  | 9 nM | 148 min |  | Nc1ncnc2c1c(-c1ccccc1)cn2[C@H]1CC[C@@H](N)CC1 | 70% | 44% |  | 
101% |  |  |  |  | Nc1ncnc2c1c(-c1ccoc1)cn2[C@H]1CC[C@@H](N)CC1 | 13% |  |  | 
